Results taken from article PMC4581724 (Analytical biochemistry, 2015).
Read-outs that look alike come from different tables or passages of the source.

Tests used:
[1] = target: T1, CrAS3MT (Chlamydomonas reinhardtii, UniProt K0BVM7); assay: biochemical; type: biochemical
T1 sequence (K0BVM7 1-379): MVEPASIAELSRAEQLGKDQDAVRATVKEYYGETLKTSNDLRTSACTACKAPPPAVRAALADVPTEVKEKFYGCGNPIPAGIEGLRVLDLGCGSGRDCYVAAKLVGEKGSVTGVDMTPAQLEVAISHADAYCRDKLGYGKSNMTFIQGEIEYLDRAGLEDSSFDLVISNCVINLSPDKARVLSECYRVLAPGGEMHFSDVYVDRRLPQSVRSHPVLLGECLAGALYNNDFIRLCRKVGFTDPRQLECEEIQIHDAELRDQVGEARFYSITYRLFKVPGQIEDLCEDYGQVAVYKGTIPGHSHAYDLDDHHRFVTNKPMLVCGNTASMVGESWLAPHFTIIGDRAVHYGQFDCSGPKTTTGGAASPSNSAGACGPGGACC

[2] = tested on: Y72W CrAS3MT; type: binding, Chlamydomonas reinhardtii
[3] = target: T1, CrAS3MT; type: biochemical
[4] = tested on: SAM methyltransferases; conditions: read-out: IC50 for SAM methyltransferases; cited from earlier work

CSS(C)(=O)=O [MMTS, methylmethanethiosulfonate]
IC50 ([1]; read-out: IC50 for inhibition of SAH production (half-maximal inhibition)): 43 µM
effect on quenching of Y72W by As(III) [2]: significant reduction in quenching
effect on the fluorescence of Y72W (quenching) [2]: quenched
protein fluorescence quenching at 20 μM MMTS [2]: not substantially quenched

CCN1C(=O)C=CC1=O [NEM, N-ethylmaleimide]
effect on arsenic methylation [3]: completely inhibited
IC50 [1]: 140 µM

[Sb+3] [Sb(III)]
effect on the fluorescence of Y72W (quenching) [2]: most quenching at the lowest concentration

Nc1ncnc2c1ncn2[C@@H]1O[C@H](CC(N)CCC(N)C(=O)O)[C@@H](O)[C@H]1O (stereo partly shown) [sinefungin, 5′-deoxy-5′-(1,4-diamino-4-carboxybutyl)adenosine]
effect on formation of DMAs(V) [3]: significantly inhibited
IC50 [1]: 0.5 µM
IC50 [4]: 0.1 to 20 µM
effect on As(III)-induced fluorescence quenching [2]: no effect
quenching of Y72W fluorescence by sinefungin [2]: did not quench

arsenite [As(III)]
As(III) concentration at which activity could be detected [1]: 10^−8 molar
